Toxic doses and inconclusive results are not listed. The calls were made as follows: active = survival T/C of 150% or more; inactive = T/C below 125% in these data.
Test system: CD2F1 mice, L1210 leukemia ip, survival T/C
Assay: NCI In Vivo Anticancer Drug Screen. Data for tumor model L1210 Leukemia (intraperitoneal) in CD2F1 (CDF1) mice
Conditions: higher = longer survival
Procedure, shortened: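 Activity against a transplanted murine tumor was judged by comparing the compound group with a vehicle group. The outcome in the treated animals was divided by that in the controls.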

[1] = endpoint: mean survival time, dose: 25.0 mg/kg/injection, schedule: Q04DX002 (ip), vehicle: saline with Tween-80
[2] = endpoint: mean survival time, dose: 50.0 mg/kg/injection, schedule: Q04DX002 (ip), vehicle: saline with Tween-80
[3] = endpoint: mean survival time, dose: 100.0 mg/kg/injection, schedule: Q04DX002 (ip), vehicle: saline with Tween-80
[4] = endpoint: mean survival time, dose: 100.0 mg/kg/injection, schedule: Q04DX003 (ip), vehicle: saline with Tween-80
[5] = endpoint: mean survival time, dose: 200.0 mg/kg/injection, schedule: Q04DX003 (ip), vehicle: saline with Tween-80
[6] = endpoint: mean survival time, dose: 100.0 mg/kg/injection, schedule: Q01DX009 (ip), vehicle: Klucel (hydroxypropylcellulose) (HPC)
[7] = endpoint: mean survival time, dose: 200.0 mg/kg/injection, schedule: Q01DX009 (ip), vehicle: Klucel (hydroxypropylcellulose) (HPC)
[8] = endpoint: mean survival time, dose: 400.0 mg/kg/injection, schedule: Q01DX009 (ip), vehicle: Klucel (hydroxypropylcellulose) (HPC)
[9] = endpoint: mean survival time, dose: 400.0 mg/kg/injection, schedule: Q04DX003 (ip), vehicle: saline with Tween-80
[10] = endpoint: mean survival time, dose: 100.0 mg/kg/injection, schedule: Q01DX009 (ip), vehicle: saline with Tween-80
[11] = endpoint: mean survival time, dose: 200.0 mg/kg/injection, schedule: Q01DX009 (ip), vehicle: saline with Tween-80
[12] = endpoint: mean survival time, dose: 400.0 mg/kg/injection, schedule: Q01DX001 (ip), vehicle: saline with Tween-80

Measured: T/C

COc1c(O)c2c(c3cc(C(=O)N4CCc5c4c(O)c(OC)c4[nH]c(C(=O)N6CC7CC78C6=CC(=O)c6[nH]cc(C)c68)cc54)[nH]c13)CCN2C(N)=O (configuration not stated)
inactive: endpoint: mean survival time, dose: 1.0 micrograms/kg/injection, schedule: Q01DX009 (ip), vehicle: other 116 % of control | endpoint: mean survival time, dose: 4.4 micrograms/kg/injection, schedule: Q04DX003 (ip), vehicle: other 106 % of control | endpoint: mean survival time, dose: 6.6 micrograms/kg/injection, schedule: Q04DX003 (ip), vehicle: other 104 % of control | endpoint: mean survival time, dose: 10.0 micrograms/kg/injection, schedule: Q04DX003 (ip), vehicle: other 116 % of control | endpoint: mean survival time, dose: 22.5 micrograms/kg/injection, schedule: Q04DX003 (ip), vehicle: other 122 % of control | endpoint: mean survival time, dose: 30.0 micrograms/kg/injection, schedule: Q01DX009 (ip), vehicle: other 124 % of control | endpoint: mean survival time, dose: 100.0 micrograms/kg/injection, schedule: Q04DX003 (ip), vehicle: other 101 % of control

CC(=O)[O][Hg][c]1c(C)c(C)[c]([Hg][O]C(C)=O)c(C)c1C
inactive: [1] 87 % of control | [2] 87 % of control

CCCCN1C(=O)N(c2ccc(OCC)cc2)C2N(CCCC)C1C(C)(C)C2(C)C (configuration not stated)
inactive: [3] 107 % of control | endpoint: median survival time, dose: 7.5 mg/kg/injection, schedule: Q01DX005 (ip), vehicle: saline with Tween-80 107 % of control | endpoint: median survival time, dose: 15.0 mg/kg/injection, schedule: Q01DX005 (ip), vehicle: saline with Tween-80 110 % of control | endpoint: median survival time, dose: 30.0 mg/kg/injection, schedule: Q01DX005 (ip), vehicle: saline with Tween-80 101 % of control | endpoint: median survival time, dose: 60.0 mg/kg/injection, schedule: Q01DX005 (ip), vehicle: saline with Tween-80 101 % of control | endpoint: median survival time, dose: 120.0 mg/kg/injection, schedule: Q01DX005 (ip), vehicle: saline with Tween-80 113 % of control

Cc1ccc(NC(=O)C2CCC(C)(C(=O)O)C2(C)C)cc1 (configuration not stated)
inactive: [4] 96 % of control | [5] 91 % of control

CNC(=S)Nc1ncn[nH]1
inactive: endpoint: mean survival time, dose: 12.5 mg/kg/injection, schedule: Q01DX001 (ip), vehicle: carboxymethylcellulose (CMC) 95 % of control | endpoint: mean survival time, dose: 25.0 mg/kg/injection, schedule: Q01DX001 (ip), vehicle: carboxymethylcellulose (CMC) 93 % of control | endpoint: mean survival time, dose: 50.0 mg/kg/injection, schedule: Q01DX001 (ip), vehicle: carboxymethylcellulose (CMC) 93 % of control | endpoint: mean survival time, dose: 100.0 mg/kg/injection, schedule: Q01DX001 (ip), vehicle: carboxymethylcellulose (CMC) 91 % of control | endpoint: mean survival time, dose: 200.0 mg/kg/injection, schedule: Q01DX001 (ip), vehicle: carboxymethylcellulose (CMC) 91 % of control

CC(=O)C(=O)Sc1ccccc1
inactive: endpoint: mean survival time, dose: 12.5 mg/kg/injection, schedule: Q04DX002 (ip), vehicle: Klucel (hydroxypropylcellulose) (HPC) 94 % of control | endpoint: mean survival time, dose: 25.0 mg/kg/injection, schedule: Q04DX002 (ip), vehicle: Klucel (hydroxypropylcellulose) (HPC) 105 % of control | endpoint: mean survival time, dose: 50.0 mg/kg/injection, schedule: Q04DX002 (ip), vehicle: Klucel (hydroxypropylcellulose) (HPC) 90 % of control

C#CC(C)OCC1CNC(=S)O1 (configuration not stated)
inactive: endpoint: mean survival time, dose: 25.0 mg/kg/injection, schedule: Q01DX009 (ip), vehicle: Klucel (hydroxypropylcellulose) (HPC) 96 % of control | endpoint: mean survival time, dose: 50.0 mg/kg/injection, schedule: Q01DX009 (ip), vehicle: Klucel (hydroxypropylcellulose) (HPC) 92 % of control | [6] 94 % of control | [7] 97 % of control | [8] 91 % of control

COC1CCC(/C=C(\C#N)C2CCC([N+](=O)[O-])CC2)CC1Br (configuration not stated)
inactive: [1] 105 % of control | [2] 96 % of control

O=C(/C=C/c1ccco1)c1ccc2ccccc2c1
inactive: endpoint: mean survival time, dose: 100.0 mg/kg/injection, schedule: Q01DX001 (ip), vehicle: saline 102 % of control | endpoint: mean survival time, dose: 200.0 mg/kg/injection, schedule: Q01DX001 (ip), vehicle: saline 94 % of control | endpoint: mean survival time, dose: 400.0 mg/kg/injection, schedule: Q01DX001 (ip), vehicle: saline 94 % of control

O=[N+]([O-])c1ccc2nc3ccccc3cc2c1
inactive: [4] 92 % of control | [5] 92 % of control | [9] 91 % of control

C=C1C(=O)OC2CC/C=C\CCC12 (configuration not stated)
inactive: endpoint: mean survival time, dose: 50.0 mg/kg/injection, schedule: Q01DX009 (ip), vehicle: saline 105 % of control | endpoint: mean survival time, dose: 100.0 mg/kg/injection, schedule: Q01DX009 (ip), vehicle: saline 97 % of control | endpoint: mean survival time, dose: 200.0 mg/kg/injection, schedule: Q01DX009 (ip), vehicle: saline 102 % of control

[O-][n+]1ccnc2c1cnn2C1OC(CO)C(O)C1O (configuration not stated)
inactive: endpoint: mean survival time, dose: 12.5 mg/kg/injection, schedule: Q04DX003 (ip), vehicle: water 104 % of control | endpoint: mean survival time, dose: 25.0 mg/kg/injection, schedule: Q04DX003 (ip), vehicle: water 104 % of control | endpoint: mean survival time, dose: 50.0 mg/kg/injection, schedule: Q04DX003 (ip), vehicle: water 101 % of control | endpoint: mean survival time, dose: 100.0 mg/kg/injection, schedule: Q04DX003 (ip), vehicle: water 101 % of control | endpoint: mean survival time, dose: 200.0 mg/kg/injection, schedule: Q04DX003 (ip), vehicle: water 101 % of control

COC(=O)c1ccc([N+](=O)[O-])cc1O
inactive: [10] 105 % of control | [11] 102 % of control | endpoint: mean survival time, dose: 400.0 mg/kg/injection, schedule: Q01DX009 (ip), vehicle: saline with Tween-80 97 % of control

[C-]1=CC2C=CC1C1[C-]=CC21.[Cl][Pd][Cl] (configuration not stated)
inactive: endpoint: mean survival time, dose: 12.5 mg/kg/injection, schedule: Q01DX009 (ip), vehicle: saline with Tween-80 94 % of control

CC(=O)N(C(C)=O)c1ccc2[nH]c3c(N(C(C)=O)C(C)=O)cccc3c2c1
inactive: endpoint: mean survival time, dose: 100.0 mg/kg/injection, schedule: Q04DX003 (ip), vehicle: Klucel (hydroxypropylcellulose) (HPC) 97 % of control | endpoint: mean survival time, dose: 200.0 mg/kg/injection, schedule: Q04DX003 (ip), vehicle: Klucel (hydroxypropylcellulose) (HPC) 96 % of control | endpoint: mean survival time, dose: 400.0 mg/kg/injection, schedule: Q04DX003 (ip), vehicle: Klucel (hydroxypropylcellulose) (HPC) 97 % of control

CCCCCCCCCCCCCCCCOc1ccc(OCCCCCCCCC)cc1
inactive: [12] 86 % of control

NC(=O)CC(NC(=O)C(F)(F)F)C(=O)O (configuration not stated)
inactive: endpoint: mean survival time, dose: 75.0 mg/kg/injection, schedule: Q01DX001 (ip), vehicle: saline 101 % of control | endpoint: mean survival time, dose: 150.0 mg/kg/injection, schedule: Q01DX001 (ip), vehicle: saline 95 % of control | endpoint: mean survival time, dose: 300.0 mg/kg/injection, schedule: Q01DX001 (ip), vehicle: saline 101 % of control

OCC1=CCN(CCc2c[nH]c3ccccc23)CC1
inactive: [10] 96 % of control | [11] 96 % of control

CC1(C)CC(=O)C2(CNC3=C(CCC(C)(C)C3)C2)C(=O)C1
inactive: [2] 91 % of control | [3] 91 % of control | endpoint: mean survival time, dose: 200.0 mg/kg/injection, schedule: Q04DX002 (ip), vehicle: saline with Tween-80 100 % of control | endpoint: mean survival time, dose: 400.0 mg/kg/injection, schedule: Q04DX002 (ip), vehicle: saline with Tween-80 91 % of control

Cc1ccc(S(=O)(=O)OCC(O)C(O)C(O)C(C)O)cc1 (configuration not stated)
inactive: endpoint: mean survival time, dose: 100.0 mg/kg/injection, schedule: Q01DX001 (ip), vehicle: saline with Tween-80 98 % of control | endpoint: mean survival time, dose: 200.0 mg/kg/injection, schedule: Q01DX001 (ip), vehicle: saline with Tween-80 98 % of control | [12] 102 % of control

Cc1c(Cl)c(N)c(Cl)c(Cl)c1Cl
inactive: [4] 101 % of control | [5] 104 % of control | [9] 96 % of control

CC(C)CCCCCc1ccc(OCCOc2ccc(C(=O)Nc3ccc(S(=O)(=O)F)cc3[N+](=O)[O-])cc2)cc1
inactive: [6] 91 % of control | [7] 92 % of control | [8] 87 % of control
